Experimental data: patent publication EP0655506B1 (priority 1994, dated 1995)

Molecular target: T1, T7 DNA polymerase Y526F (Escherichia phage T7, UniProt P00581, DEL118-145/Y526F)
T1 construct: made in house; host or cells: strain that produces E. coli thioredoxin (lac promoter)
Experiment: Gel electrophoresis-based rate of incorporation of dideoxynucleotides relative to deoxynucleotides, varying the ratio of dNTPs to ddNTPs (Example 7)
Type: biochemical, bacteriophage T7
Conditions: 10 µM 4 dNTPs, ddNTP 100 to 2,000 µM; ddNTP:dNTP ratio giving fragments comparable to T7 DNA polymerase, multiplied by its Example 6 ratio
Procedure: This example is similar to that described in Example 6. While it is the preferred test for DNA polymerases that discriminate strongly against the incorporation of dideoxynucleotides (e.g. T7 DNA polymerase Y526F, E. coli DNA polymerase I and Taq DNA polymerase), it also works well with DNA polymerases that efficiently incorporate ddNMPs (e.g. T7 DNA polymerase, E. coli DNA polymerase I mutant F762Y and Taq DNA polymerase mutant F667Y).
The average length of a series of fragments is determined in one of two ways. […] The position of the front marking the appearance of visible radioactive bands is usually relatively sharp and readily observed by eye. However, it is also possible to determine such positions more precisely using the Phosphoimager to locate the position in each lane where a certain threshold of radioactivity per unit area occurs, starting at the top of the gel and moving down the gel.
Some DNA polymerases discriminate very strongly against the incorporation of dideoxynucleotides, in which case it is difficult to add sufficient ddNTPs to the reaction to clearly detect the position of the largest dideoxy-terminated fragments on a denaturing polyacrylamide gel. For such DNA polymerases, one can use an alkaline agarose gel electrophoresis to compare the lengths of the dideoxy-terminated fragments in the different series.
These tests were carried out using the six DNA polymerases described in Example 6. The reaction conditions were identical to that described in Example 6 except for the concentrations of dNTPs and ddNTPs. All reaction mixtures contained 10 µM 4 dNTPs. Each of the four ddNTP concentrations were varied by two-fold increments in the following ranges for the six DNA polymerases as follows: T7 DNA polymerase, E. coli DNA polymerase I F762Y, and Taq DNA polymerase F667Y , 0.02 µM to 1 µM, and T7 DNA polymerase Y526F, E. coli DNA polymerase I and Taq DNA polymerase, 100 to 2,000 µM. The reactions were carried out and the samples were analyzed by denaturing polyacrylamide gel electrophoresis as described in Example 6. Drying of the gel, autoradiography, and Phosphoimager analysis were as described in Example 6. The Table below summarizes the results from this experiment; the values shown for T7 DNA polymerase, E. coli DNA polymerase I F762Y, and Taq DNA polymerase F667Y are the absolute ratios obtained in Example 6 by statistical analysis of the rate of exponential decay in intensity of dideoxy-terminated fragments obtained using a 1:1 ratio of dNTPs to ddNTPs. […] This factor was multiplied by the absolute ratios obtained for T7 DNA polymerase, E. coli DNA polymerase I F762Y, and Taq DNA polymerase F667Y in Example 6 in order to obtain the values shown below for T7 DNA polymerase Y526F, E. coli DNA polymerase I and Taq DNA polymerase, respectively.

T1 sequence (P00581 other isoform, or with tags, fused parts or gaps DEL118-145/Y526F): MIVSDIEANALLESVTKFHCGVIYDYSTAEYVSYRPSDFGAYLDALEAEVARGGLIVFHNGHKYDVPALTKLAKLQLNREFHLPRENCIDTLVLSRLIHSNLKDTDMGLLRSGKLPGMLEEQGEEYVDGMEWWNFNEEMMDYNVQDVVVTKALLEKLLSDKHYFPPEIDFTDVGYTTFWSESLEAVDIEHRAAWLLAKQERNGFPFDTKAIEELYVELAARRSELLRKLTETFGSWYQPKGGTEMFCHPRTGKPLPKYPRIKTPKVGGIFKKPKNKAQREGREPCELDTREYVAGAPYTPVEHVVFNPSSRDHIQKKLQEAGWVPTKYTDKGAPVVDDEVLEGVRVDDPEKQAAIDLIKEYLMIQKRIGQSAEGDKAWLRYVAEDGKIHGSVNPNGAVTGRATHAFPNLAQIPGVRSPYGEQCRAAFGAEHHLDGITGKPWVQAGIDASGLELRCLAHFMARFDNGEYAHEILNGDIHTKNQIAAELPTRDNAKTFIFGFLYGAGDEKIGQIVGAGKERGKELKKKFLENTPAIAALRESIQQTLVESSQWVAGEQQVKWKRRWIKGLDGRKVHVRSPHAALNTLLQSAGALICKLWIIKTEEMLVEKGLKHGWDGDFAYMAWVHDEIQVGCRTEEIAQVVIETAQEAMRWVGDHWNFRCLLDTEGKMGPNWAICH
T1 sequence (P0AA25 2-109, stated change not applied, further chain): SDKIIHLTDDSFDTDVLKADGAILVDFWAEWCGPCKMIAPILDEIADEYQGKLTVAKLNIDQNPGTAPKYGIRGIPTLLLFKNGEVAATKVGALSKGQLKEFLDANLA

Compound	Incorporation Rate Ratios (dN/ddN)
Nc1ncnc2c1ncn2[C@H]1CC[C@@H](COP(=O)(O)OP(=O)(O)OP(=O)(O)O)O1 [ddATP]	7,300
Nc1ccn([C@H]2CC[C@@H](COP(=O)(O)OP(=O)(O)OP(=O)(O)O)O2)c(=O)n1 [ddCTP]	11,000
Nc1nc2c(ncn2[C@H]2CC[C@@H](COP(=O)(O)OP(=O)(O)OP(=O)(O)O)O2)c(=O)[nH]1 [ddGTP]	6,400
Cc1cn([C@H]2CC[C@@H](COP(=O)(O)OP(=O)(O)OP(=O)(O)O)O2)c(=O)[nH]c1=O [ddTTP]	8,400
